Measurements from patent US20260053834A1, “COVALENT MODIFIERS OF AKT1 AND USES THEREOF” (Terremoto Biosciences, Inc., priority 2023, published 2026).

Legend:
[1] = tested on: LAPC4 prostate cancer cells, which express the AKT1 E17K allele; assay: Antiproliferative effects in LAPC4 cells (CellTiter Glo, 72 h); type: cell-based; settings: Homo sapiens, LAPC4, 72 h, read-out: LAPC4 proliferation IC50: GeoMean IC50
How it was run: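 IC50 values come from Hill-equation fitting of luminescence (cellular ATP) after 72 h compound exposure. Treated wells held 1,000 cells each, with compound delivered as DMSO dilutions. Culture medium was IMDM plus 12% FBS.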

AKT1 E17K = molecular target: T1, AKT1 E17K (Homo sapiens, UniProt P31749, E17K); assay: Live cell target engagement by NanoBRET competitive probe displacement, AKT1 E17K; type: binding; settings: transfected HEK293 cells, 2 h at 37° C., read-out: AKT1 E17K IC50: GeoMean IC50
T1 construct: expressed in transfected cells; host or cells: HEK293
T1 sequence (P31749 whole entry E17K): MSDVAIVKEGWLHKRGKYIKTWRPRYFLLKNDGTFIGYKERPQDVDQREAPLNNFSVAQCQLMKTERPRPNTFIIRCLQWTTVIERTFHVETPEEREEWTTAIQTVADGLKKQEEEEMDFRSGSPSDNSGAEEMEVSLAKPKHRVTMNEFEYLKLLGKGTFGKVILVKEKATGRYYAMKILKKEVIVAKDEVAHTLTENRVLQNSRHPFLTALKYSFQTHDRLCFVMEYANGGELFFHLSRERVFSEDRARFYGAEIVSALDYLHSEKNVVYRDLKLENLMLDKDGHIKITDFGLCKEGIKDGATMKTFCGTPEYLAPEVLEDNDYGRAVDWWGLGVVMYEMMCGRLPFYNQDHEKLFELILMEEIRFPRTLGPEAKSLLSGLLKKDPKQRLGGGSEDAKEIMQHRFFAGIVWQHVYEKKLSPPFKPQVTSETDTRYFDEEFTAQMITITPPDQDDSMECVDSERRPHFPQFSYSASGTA

AKT1 WT = molecular target: T2, AKT1 WT (Homo sapiens, UniProt P31749); assay: Live cell target engagement by NanoBRET competitive probe displacement, AKT1 WT; type: binding; settings: transfected HEK293 cells, 2 h at 37° C., read-out: AKT1 WT IC50: GeoMean IC50
T2 construct: expressed in transfected cells; host or cells: HEK293
T2 sequence (P31749 whole entry): as the sequence (P31749 whole entry E17K) above, with K17E counted along it

AKT2 = molecular target: T3, AKT2 (Homo sapiens, UniProt P31751); assay: Live cell target engagement by NanoBRET competitive probe displacement, AKT2; type: binding; settings: transfected HEK293 cells, 2 h at 37° C., read-out: AKT2 IC50: GeoMean IC50
T3 construct: expressed in transfected cells; host or cells: HEK293
T3 sequence (P31751 whole entry): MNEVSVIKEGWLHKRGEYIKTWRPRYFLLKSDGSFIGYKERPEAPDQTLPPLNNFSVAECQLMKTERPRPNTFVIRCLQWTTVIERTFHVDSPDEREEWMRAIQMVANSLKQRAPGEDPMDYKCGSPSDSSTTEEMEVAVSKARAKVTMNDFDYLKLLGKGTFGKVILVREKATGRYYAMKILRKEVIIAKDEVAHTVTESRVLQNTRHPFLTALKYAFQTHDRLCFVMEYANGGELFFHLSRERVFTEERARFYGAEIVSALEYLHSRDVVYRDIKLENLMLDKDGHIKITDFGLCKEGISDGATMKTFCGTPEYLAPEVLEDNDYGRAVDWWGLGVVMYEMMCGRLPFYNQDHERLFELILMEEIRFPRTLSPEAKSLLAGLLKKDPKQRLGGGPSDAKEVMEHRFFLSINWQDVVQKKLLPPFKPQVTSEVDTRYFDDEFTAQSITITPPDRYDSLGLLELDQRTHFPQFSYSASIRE

Row | SMILES | IC50 [1] [nM] | IC50 (AKT1 E17K) [nM] | IC50 (AKT1 WT) [nM] | IC50 (AKT2) [nM]
1 | CS(=O)(=O)Nc1cc(F)c(C(=O)N[C@H]2CCc3cc(-n4c(-c5cccnc5N)nc5ccc(-n6cccn6)nc54)ccc32)cc1C=O [Example 217, N-[(1S)-5-[2-(2-aminopyridin-3-yl)-5-(pyrazol-1-yl)imidazo[4,5-b]pyridin-3-yl]-2,3-dihydro-1H-inden-1-yl]-2-fluoro-5-formyl-4-methanesulfonamidobenzamide] | ≥ 2000 | ≥ 2000 | ≥ 2000 | ≥ 2000
2 | [N-]=[N+]=Nc1c(C(=O)N[C@H]2CCc3cc(-n4c(-c5cccnc5N)nc5ccc(-n6cccn6)nc54)ccc32)cc(C=O)c(O)c1F [Example 218, (S)—N-(5-(2-(2-aminopyridin-3-yl)-5-(1H-pyrazol-1-yl)-3H-imidazo[4,5-b]pyridin-3-yl)-2,3-dihydro-1H-inden-1-yl)-2-azido-3-fluoro-5-formyl-4-hydroxybenzamide] | 100 to 2000 | 100 to 2000 | 100 to 2000 | 100 to 2000
3 | CC1(NC(=O)c2ccc(O)c(C=O)c2)CCc2cc(-n3c(-c4cccnc4N)nc4ccc(-n5cccn5)nc43)ccc21 (stereo not shown) [Example 219, N-(5-(2-(2-aminopyridin-3-yl)-5-(1H-pyrazol-1-yl)-3H-imidazo[4,5-b]pyridin-3-yl)-1-methyl-2,3-dihydro-1H-inden-1-yl)-3-formyl-4-hydroxybenzamide] | ≥ 2000 | ≥ 2000 | 100 to 2000 | 100 to 2000
4 | Cc1cc(-n2cccn2)nc2c1nc(-c1cccnc1N)n2-c1ccc2c(c1)CC[C@@H]2n1cnc2cc(O)c(C=O)cc2c1=O [Example 220, (S)-3-(5-(2-(2-aminopyridin-3-yl)-7-methyl-5-(1H-pyrazol-1-yl)-3H-imidazo[4,5-b]pyridin-3-yl)-2,3-dihydro-1H-inden-1-yl)-7-hydroxy-4-oxo-3,4-dihydroquinazoline-6-carbaldehyde] | 100 to 2000 | 100 to 2000 | 100 to 2000 | 100 to 2000
5 | CN1CCN(c2cc(-n3cccn3)nc3c2nc(-c2cccnc2N)n3-c2ccc3c(c2)CC[C@@H]3NC(=O)c2ccc(O)c(C=O)c2)CC1 [Example 223, N-[(1S)-5-[2-(2-aminopyridin-3-yl)-7-(4-methylpiperazin-1-yl)-5-(pyrazol-1-yl)imidazo[4,5-b]pyridin-3-yl]-2,3-dihydro-1H-inden-1-yl]-3-formyl-4-hydroxybenzamide] | 100 to 2000 | 10 to 100 | 100 to 2000 | 100 to 2000
6 | CN(C)c1cc(C(=O)N[C@H]2CCc3cc(-n4c(-c5cccnc5N)nc5ccc(-n6cccn6)nc54)ccc32)cc(C=O)c1O [Example 228, N-[(1S)-5-[2-(2-aminopyridin-3-yl)-5-(pyrazol-1-yl)imidazo[4,5-b]pyridin-3-yl]-2,3-dihydro-1H-inden-1-yl]-3-(dimethylamino)-5-formyl-4-hydroxybenzamide] | 100 to 2000 | 10 to 100 | 100 to 2000 | ≥ 2000
7 | Cc1cc2nc(-c3cccnc3N)n(-c3ccc4c(c3)CC[C@@H]4NC(=O)c3ccc(O)c(C=O)c3)c2nc1-n1cccn1 [Example 229, (S)—N-(5-(2-(2-aminopyridin-3-yl)-6-methyl-5-(1H-pyrazol-1-yl)-3H-imidazo[4,5-b]pyridin-3-yl)-2,3-dihydro-1H-inden-1-yl)-3-formyl-4-hydroxybenzamide] | 100 to 2000 | 10 to 100 | 100 to 2000 | 100 to 2000
8 | Nc1ncccc1-c1nc2c(C3CC3)cc(-n3cccn3)nc2n1-c1ccc2c(c1)CC[C@@H]2NC(=O)c1ccc(O)c(C=O)c1 [Example 230, N-[(1S)-5-[2-(2-aminopyridin-3-yl)-7-cyclopropyl-5-(pyrazol-1-yl)imidazo[4,5-b]pyridin-3-yl]-2,3-dihydro-1H-inden-1-yl]-3-formyl-4-hydroxybenzamide] | 100 to 2000 | 10 to 100 | 10 to 100 | 100 to 2000
9 | Nc1ncccc1-c1nc2c(N3CCC3)cc(-n3cccn3)nc2n1-c1ccc2c(c1)CC[C@@H]2NC(=O)c1ccc(O)c(C=O)c1 [Example 231, N-[(1S)-5-[2-(2-aminopyridin-3-yl)-7-(azetidin-1-yl)-5-(pyrazol-1-yl)imidazo[4,5-b]pyridin-3-yl]-2,3-dihydro-1H-inden-1-yl]-3-formyl-4-hydroxybenzamide] | 100 to 2000 | 10 to 100 | 10 to 100 | 100 to 2000

Continued, values first:

Row | IC50 [1] [nM] | IC50 (AKT1 E17K) [nM] | IC50 (AKT1 WT) [nM] | IC50 (AKT2) [nM] | SMILES
10 | 100 to 2000 | 10 to 100 | 10 to 100 | 100 to 2000 | Nc1ncccc1-c1nc2c(F)cc(-n3cccn3)nc2n1-c1ccc2c(c1)CC[C@@H]2NC(=O)c1ccc(O)c(C=O)c1 [Example 213, N-[(1S)-5-[2-(2-aminopyridin-3-yl)-7-fluoro-5-(pyrazol-1-yl)imidazo[4,5-b]pyridin-3-yl]-2,3-dihydro-1H-inden-1-yl]-3-formyl-4-hydroxybenzamide]
11 | 10 to 100 | < 10 | 10 to 100 | 100 to 2000 | COc1c(O)c(C=O)cc(C(=O)N[C@H]2CCc3cc(-n4c(-c5cccnc5N)nc5ccc(-n6cccn6)nc54)ccc32)c1F [Example 214, N-[(1S)-5-[2-(2-aminopyridin-3-yl)-5-(pyrazol-1-yl)imidazo[4,5-b]pyridin-3-yl]-2,3-dihydro-1H-inden-1-yl]-2-fluoro-5-formyl-4-hydroxy-3-methoxybenzamide]
12 | 100 to 2000 | 10 to 100 | 100 to 2000 | 100 to 2000 | COc1cc2nc(-c3cccnc3N)n(-c3ccc4c(c3)CC[C@@H]4NC(=O)c3ccc(O)c(C=O)c3)c2nc1-n1cccn1 [Example 215, N-[(1S)-5-[2-(2-aminopyridin-3-yl)-6-methoxy-5-(pyrazol-1-yl)imidazo[4,5-b]pyridin-3-yl]-2,3-dihydro-1H-inden-1-yl]-3-formyl-4-hydroxybenzamide]
13 | 100 to 2000 | 10 to 100 | 100 to 2000 | 100 to 2000 | Nc1ncccc1-c1nc2ccc(-n3cccn3)nc2n1-c1ccc2c(c1)CC[C@@H]2NC(=O)Cc1ccc(C=O)c(O)c1F [Example 216, (S)—N-(5-(2-(2-aminopyridin-3-yl)-5-(1H-pyrazol-1-yl)-3H-imidazo[4,5-b]pyridin-3-yl)-2,3-dihydro-1H-inden-1-yl)-2-(2-fluoro-4-formyl-3-hydroxyphenyl)acetamide; trifluoroacetic acid]
14 | 10 to 100 | 10 to 100 | 10 to 100 | 100 to 2000 | COc1cc(-n2cccn2)nc2c1nc(-c1cccnc1N)n2-c1ccc2c(c1)CC[C@@H]2NC(=O)c1cc(C=O)c(O)cc1F [Example 221, N-[(1S)-5-[2-(2-aminopyridin-3-yl)-7-methoxy-5-(pyrazol-1-yl)imidazo[4,5-b]pyridin-3-yl]-2,3-dihydro-1H-inden-1-yl]-2-fluoro-5-formyl-4-hydroxybenzamide]
15 | 10 to 100 | 10 to 100 | 10 to 100 | 10 to 100 | COc1cc(-n2cccn2)nc2c1nc(-c1cccnc1N)n2-c1ccc2c(c1)CC[C@@H]2NC(=O)c1cc(C=O)c(O)c(F)c1F [Example 222, N-[(1S)-5-[2-(2-aminopyridin-3-yl)-7-methoxy-5-(pyrazol-1-yl)imidazo[4,5-b]pyridin-3-yl]-2,3-dihydro-1H-inden-1-yl]-2,3-difluoro-5-formyl-4-hydroxybenzamide]
16 | 10 to 100 | 10 to 100 | 10 to 100 | 100 to 2000 | Nc1ncccc1-c1nc2c(N3CCOCC3)cc(-n3cccn3)nc2n1-c1ccc2c(c1)CC[C@@H]2NC(=O)c1ccc(O)c(C=O)c1 [Example 224, N-[(1S)-5-[2-(2-aminopyridin-3-yl)-7-(morpholin-4-yl)-5-(pyrazol-1-yl)imidazo[4,5-b]pyridin-3-yl]-2,3-dihydro-1H-inden-1-yl]-3-formyl-4-hydroxybenzamide]
17 | 10 to 100 | 10 to 100 | 10 to 100 | 100 to 2000 | Nc1ncccc1-c1nc2c(OC(F)F)cc(-n3cccn3)nc2n1-c1ccc2c(c1)CC[C@@H]2NC(=O)c1ccc(O)c(C=O)c1 [Example 225, N-[(1S)-5-[2-(2-aminopyridin-3-yl)-7-(difluoromethoxy)-5-(pyrazol-1-yl)imidazo[4,5-b]pyridin-3-yl]-2,3-dihydro-1H-inden-1-yl]-3-formyl-4-hydroxybenzamide]
18 | 10 to 100 | 10 to 100 | 10 to 100 | 100 to 2000 | Nc1ncccc1-c1nc2cc(O)c(-n3cccn3)nc2n1-c1ccc2c(c1)CC[C@@H]2NC(=O)c1cc(C=O)c(O)cc1F [Example 226, N-[(1S)-5-[2-(2-aminopyridin-3-yl)-6-hydroxy-5-(pyrazol-1-yl)imidazo[4,5-b]pyridin-3-yl]-2,3-dihydro-1H-inden-1-yl]-2-fluoro-5-formyl-4-hydroxybenzamide]
19 | 10 to 100 | 10 to 100 | 10 to 100 | 100 to 2000 | Cc1cc(-n2nccn2)nc2c1nc(-c1cccnc1N)n2-c1ccc2c(c1)CC[C@@H]2NC(=O)c1cc(C=O)c(O)c(F)c1F [Example 227, N-[(1S)-5-[2-(2-aminopyridin-3-yl)-7-methyl-5-(1,2,3-triazol-2-yl)imidazo[4,5-b]pyridin-3-yl]-2,3-dihydro-1H-inden-1-yl]-2,3-difluoro-5-formyl-4-hydroxybenzamide]
